From patent US20230226198A1, “Artemisinin Derivatives” (DA ZEN THERANOSTICS, INC., priority 2019, published 2023)
Read-outs that look alike come from different tables or passages of the source.

Key:
[1] = test system: Caki-1 cells (human clear cell renal cell carcinoma cells); assay: MTT cell viability / IC50 assay, Caki-1; assay type: cell-based
Experimental: Cell culture: In the following examples, unless otherwise specified, all cell lines are purchased from American Type Culture Collection and cultured in American Type Culture Collection (ATCC)-recommended media, with fetal bovine serum (FBS) to a final concentration of 10% and 1× penicillin/streptomycin at 37° C. with 5% CO2 in a cell culture incubator, unless otherwise specified. Unless otherwise specified, culture is 2D. Where culture is 3D, low attachment plates are used, with the same media. C4-2B (ATCC® CRL-3315™, human prostate cancer cells of epithelial morphology) parental cell line and drug-resistant cells derived therefrom) are cultured in RPMI-1640 with 10% FBS. MDVR cells (an Enzalutamide-resistant variety of C4-2B prostate cancer cells formed as described below) are cultured as indicated for the parental C4-2B cells. Caki-1 cells (human clear cell renal cell carcinoma cells) are cultured in ATCC-formulated McCoy's 5a Medium Modified (ATCC Catalog No. 30-2007) with 10% FBS. PC3 cells (ATCC® CRL-1435™, a human prostate cancer cell line of epithelial morphology initiated from a bone metastasis of a grade IV prostatic adenocarcinoma) are cultured in F-12K with 10% FBS. 22RV1 Prostate Cancer (PC) cells (ATCC® CRL-2505™, a human prostate carcinoma cell line of epithelial morphology) are cultured in RPMI-1640 with 10% FBS. DU145 cells (ATCC® HTB-81™, a human cell line derived from a prostate-originating brain metastase, not detectably hormone sensitive, not expressing prostate antigen; forms adenocarcinoma grade II in nude mice) are cultured in ATCC-formulated Eagle's Minimum Essential Medium (EMEM, Catalog No. 30-2003). H446 cells (ATCC® HTB-171™, a human small cell carcinoma SC lung cancer (SCLC) cell line derived from a metastatic site) are cultured in RPMI-1640 with 10% FBS. H358 cells (ATCC® CRL-5807™, a human non-small cell lung cancer (NSCLC) cell line that expresses protein and RNA of SP-A, the major lung surfactant associated protein, and produces tumors in athymic nude mice) are cultured in RPMI-1640 Medium with 10% FBS. BxPC3 cells (ATCC® CRL-1687™, an adenocarcinoma-derived pancreatic cancer cell line that expresses pancreas cancer specific antigen and carcinoembryonic antigen and forms tumors in nude mice) are cultured in RPMI-1640 with 10% FBS.
Example 1: A cell assay is performed exposing cells cultured as described above to various drugs indicated below for 24 hours unless otherwise indicated. Each of the cell lines is treated either with a THAD (e.g. DZ-DHA-ether, MI-148-bis-DHA), or for comparison, with the DHA mono-ester “DZ-DHA”; alternatively/additionally, DZ1 and/or unconjugated DHA may serve as comparants. For each cell line, the IC50 is determined for each drug in concentrations from 0 to 100 μM. […] In the controls (not shown in the figures), the cells are exposed to DMSO (vehicle) for a final concentration that equals the highest concentration of the drug tested, to a maximum concentration less than 0.1% v/v. 4 hours before culture end/SDS addition, 10 μL MTT (3-(4,5-Dimethyl-2-thiazolyl)-2,5-diphenyl-2H-tetrazolium bromide, Sigma-Aldrich) is added to wells containing the cells. At the end of culture, 100 μl 10% SDS is added and then the plate containing the cells is placed in a 37° C. cell culture incubator for 8 hours. The absorbance density of the supernatant is read on a 96-well microplate reader at wavelength 595 nm. The results of Caki-1 and MDRV are indicated in the table below along with preliminary results for further cancer cell lines (including, e.g., C4-2B, Abi-R, PC3, 22Rv1, DU145, H358, H446, BxPC3), and the corresponding curves are shown in FIG. 2A (Caki-1) and FIG. 2B (MDVR).

[2] = test system: pATM, γH2AX, cytochrome c; assay: Western blot analysis of DNA damage and mitochondrial markers; assay type: cell-based
Experimental: The western blot analysis is performed as follows: Protein lysates (25 ug/sample) are separated by electrophoresis into the SDS-PAGE, which is then transferred to a nitrocellulose membrane for immunoblotting analysis. The protein membranes are blocked with 5% non-fat milk in PBS at room temperature (RT) for 1 h, followed by incubation with primary antibodies against proteins of interests diluted in 2% BSA in Phosphate Buffered Saline with Tween-20 (PBST) at 1:500 or 1:1000 at 4° C. overnight. The membranes are washed with PBST three times at 5 min for each wash on an orbital shaker, and then incubated with secondary antibodies against the species of the primary antibodies (i.e. anti-mouse or anti-rabbit) diluted in 5% non-fat milk in PBST for 1 h at RT with shaking. After the secondary antibody, the membranes are washed three times for 5 min each, and subjected to chemiluminescence imaging with ECL substrates (e.g. Pierce ECL Plus™, Thermo Fisher Scientific), to detect the protein bands of interest. Preliminary experiments indicate that the THAD as described herein may have an increased effect compared to DZ3a.

C4-2B MDVR cells = assay: Seahorse XF mitochondrial function (OCR/ECAR); assay type: cell-based, human; settings: 5 uM
Experimental: Example 5 C: To determine mitochondrial function of cancer cells (here C4-2B MDVR), the cells are treated with vehicle, DZ (5 uM), DHA (5 uM), and DZ-003 (5 uM) over 12 hours, and the oxygen consumption rate (OCR) from respiration and extracellular acidification rate (ECAR) from glycolysis of the live cells is determined in a metabolic chamber in a 24-well plate format using a Seahorse XF analyzer (Seahorse XFe24, Agilent, Calif.). Reagents (drugs/controls) are added to the wells just before start of the recording at time 0, and the effect of the drugs on the basal mitochondrial function is recorded by the analyzer for about 12 hours (720 minutes). All reagents used are Agilent reagents. Cells are seeded and cultured in Seahorse XF RPMI Medium, pH 7.4. The seeding rate is 8×10^5 for the cells to reach about 90% confluency within about 24 hours when the analysis is started. The protocol is essentially performed as per the standard protocol of the manufacturer, removing the medium, washing the cells once with XF Real-Time ATP Rate Assay Medium, then starting the measurement as per the instrument's pre-programming and subsequent real-time measurements of OCAR/ECAR. Preliminary experiments indicate that the THAD as described herein may have an increased effect compared to DZ3a.

C[C@@H]1CC[C@H]2[C@@H](C)C(OC(=O)CCCCCN3/C(=C/C=C4\CCCC(/C=C/C5=[N+](CCCCS(=O)(=O)[O-])c6ccccc6C5(C)C)=C4Cl)C(C)(C)c4ccccc43)O[C@@H]3OC4(C)CC[C@@H]1[C@]32OO4 (stereo in doubt) [DZ3a]
IC50 ([1]; Caki-1, 24 hours, relative IC50, read-out: IC50): 12.3 µM | IC50 ([1]; Caki-1, unit inferred, read-out: IC50 (FIG. 2A description)): > 12 µM | DNA damage (levels of pATM and γH2AX) [2]: induces DNA damage | depletion of mitochondria (levels of cytochrome c) [2]: depletes mitochondria | time at which lowering of OCR starts (C4-2B MDVR cells): ≤ 250 min | time until which OCR continues to lower before sustained lowered OCR (C4-2B MDVR cells): about 500 minutes | lowering of OCR (in words) (C4-2B MDVR cells; over 12 hours): can greatly lower the mitochondrial oxygen consumption rate | mitochondrial oxygen consumption rate (OCR) after treatment (C4-2B MDVR cells; over 12 hours, from about 700-800 pmol/min): less than 300 pmol/min
